Experimental findings from patent US20200276217A1 (priority 2017, published 2020) are described below.

The subject of test [1] is influenza A virus A/Puerto Rico/8/34(PR8)-Luc (IAV-Luc). It counts as cell-based.
Test [2] deals with RNA polymerase of influenza virus (Influenza A virus, UniProt P03428+P03431+P03433). It counts as cell-based.
The next test deals with HA/NA-HIVLuc pseudovirus. It counts as cell-based, influenza virus. The following applies: A549 cells, pre-incubated 8 h with concentration gradients, relative to absolute ethyl alcohol, FIG. 5.
Test [3] concerns A/WSN33/H1N1 influenza virus. The test can be described thus: Prophylactic treatment of influenza-infected mice, lung index. The following applies: 50 mg/kg intragastric, from two days before infection and 5 days after; 40 LD50 via nasal dripping; compared with 50 mg/kg ribavirin; FIG. 4. An excerpt:
[…] Barb/C mice (6- to 8-week old) were randomly divided into 4 groups (A, B, C, D) with 5 mice in each group. All animals were marked by ear clipping and then treated with a specified preparation. Group A was a blank control group, Group B was a group in which PBS was used to resist virus infection, Group C was a group in which ribavirin was used to resist virus infection, and Group D was a group in which azithromycin was used to resist virus infection. Two days before the drugs being used to resist virus infection, the mice were treated with 50 mg/kg ribavirin and 50 mg/kg azithromycin by intragastric administration, and were infected with the influenza virus via nasal dripping with a dose of 40 LD50 (10^3 PFU/ml) on the third day (50 μl/mouse), and PBS was administered instead in the blank control group. The mice were administered consecutively for 5 days after virus infection, and the administration method was same as above. After 12 hours of fasting and water deprivation, the body weights were weighed, the lungs were incised aseptically and weighed after the mice were sacrificed by eyeball extirpating, and the lung indexes were calculated so as to evaluate the protective effect of azithromycin for mice in influenza virus infection, in which the calculation method of the lung index was a conventional calculation method known in the art.

Test [4] relates to IAV-Luc influenza virus (A/Puerto Rico/8/34(PR8)-Luc). It counts as cell-based. The following applies: 10 μM, A549 cells, three treatment schemes, detection after 24 h, FIG. 7.

On to midecamycin, for which the “ability to resist influenza virus infection (infection rate relative to absolute ethyl alcohol control)” value in test [1] is reported as “had the ability to resist influenza virus infection”.
As for azithromycin, the “effect on the replication of the RNA polymerase of influenza virus” value in test [2] is listed as “did not affect the replication of the RNA polymerase of influenza virus”. In the test with HA/NA-HIVLuc pseudovirus, the “inhibition of influenza virus (pseudovirus) infection at various concentrations” value is “inhibited influenza virus infection and the inhibitory effect was concentration-dependent”. Moreover, the “ability to resist influenza virus infection (infection rate relative to absolute ethyl alcohol control)” value in test [1] is given as “had the ability to resist influenza virus infection”. The “efficacy against influenza virus infection compared among the macrolide antibiotics” value in test [1] (10 μM, A549 cells, FIG. 1) was “had the strongest efficacy”. In addition, in test [1] (10 μM, A549 cells, FIG. 2), the “inhibitory effect against influenza virus infection in the screening of small molecule compounds” value is “quite strong inhibitory effect against influenza virus infection”. The “ability to resist influenza virus infection compared with oseltamivir” value in test [1] (same concentration (10 μM), A549 cells, FIG. 3) is on record as “stronger than that of oseltamivir”. Besides, the “protective effect for mice in influenza virus infection (lung index)” value in test [3] is on record as “better protective effect for mice in influenza virus infection as compared with ribavirin”. Further, the “site of antiviral action (host cell versus virus particles)” value in test [4] was “exerted antiviral effect mainly by acting on the virus particles”.
Take erythromycin: the “ability to resist influenza virus infection (infection rate relative to absolute ethyl alcohol control)” value in test [1] is on record as “had the ability to resist influenza virus infection”.
Still for that read-out and setting: for roxithromycin the value was “had the ability to resist influenza virus infection”.
